Reference: US8846746B2, “Pyrazole compound and pharmaceutical use thereof” (Japan Tobacco Inc., priority 2011, dated 2014)

Each compound was assayed against human SGLT1 (Homo sapiens (Human), UniProt P13866) (assay: SGLT1 inhibitory activity: 14C-AMG uptake into CHO-K1 cell line stably expressing human SGLT1). Conditions: 14C-AMG uptake, CHO-K1 cells expressing human SGLT1.
Format: cell-based
Method in brief: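 Human SGLT1 was stably expressed in CHO-K1 cells. Cells were first held 20 min in sodium-free buffer, then exposed to compound in Na(+)/BSA buffer with tracer and AMG (2 mM in the added solution).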

Chain of human SGLT1 (P13866 whole entry): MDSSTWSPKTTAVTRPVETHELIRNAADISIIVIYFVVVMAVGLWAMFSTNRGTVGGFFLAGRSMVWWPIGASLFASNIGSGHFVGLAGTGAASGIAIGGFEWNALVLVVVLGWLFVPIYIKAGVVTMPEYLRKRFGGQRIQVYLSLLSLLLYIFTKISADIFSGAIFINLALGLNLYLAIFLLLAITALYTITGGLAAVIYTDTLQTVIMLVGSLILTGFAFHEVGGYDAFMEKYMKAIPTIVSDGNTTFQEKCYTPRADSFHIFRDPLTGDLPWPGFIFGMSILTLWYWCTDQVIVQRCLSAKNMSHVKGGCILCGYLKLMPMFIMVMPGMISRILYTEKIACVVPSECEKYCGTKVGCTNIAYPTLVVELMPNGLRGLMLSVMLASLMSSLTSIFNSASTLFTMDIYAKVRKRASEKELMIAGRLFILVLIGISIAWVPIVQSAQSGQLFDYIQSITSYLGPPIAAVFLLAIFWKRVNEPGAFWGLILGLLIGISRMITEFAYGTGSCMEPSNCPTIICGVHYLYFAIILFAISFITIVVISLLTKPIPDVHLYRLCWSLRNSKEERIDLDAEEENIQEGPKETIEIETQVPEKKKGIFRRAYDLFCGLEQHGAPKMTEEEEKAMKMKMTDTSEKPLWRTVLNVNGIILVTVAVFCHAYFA

IC50 [nM] | SMILES
19 | CC(F)(F)c1cccc(-c2cc(NC(=O)[C@H]3CNC(=O)C3)nn2-c2ccc(Cl)cc2)c1 [Example 162]
12 | Cc1ccc(-n2nc(NC(=O)[C@H]3CNC(=O)C3)cc2-c2cccc(C(F)(F)F)c2)cc1 [Example 230]
3.1 | C[C@H]1C(=O)NC[C@@H]1C(=O)Nc1cc(-c2cccc(C(F)(F)F)c2)n(-c2ccccc2F)n1 [Example 229]
6.2 | C[C@H]1C(=O)NC[C@@H]1C(=O)Nc1cc(-c2cccc(OC(F)(F)F)c2)n(-c2cccc(F)c2)n1 [Example 3, (3R,4R)-4-methyl-5-oxopyrrolidine-3-carboxylic acid[1-(3-fluorophenyl)-5-(3-(trifluoromethoxy)phenyl)-1H-pyrazol-3-yl]amide]
13 | CCC(F)(F)c1cccc(-c2cc(NC(=O)[C@@H]3CNC(=O)C3)nn2-c2ccccc2)c1 [Example 73]
15 | O=C1CCC(C(=O)Nc2cc(-c3cccc(OC(F)(F)F)c3)n(-c3ccccc3F)n2)CN1 (single isomer, unassigned) [Example 167]
1.2 | CC(C)(C)c1cccc(-c2cc(NC(=O)[C@H]3CNC(=O)C3)nn2-c2cccc(Cl)c2)c1 [Example 126]
7.4 | Cc1ccc(-n2nc(NC(=O)[C@H]3CNC(=O)[C@@H]3C)cc2-c2cccc(OC(F)(F)F)c2)cc1 [Example 234]
1.9 | CCCc1cccc(-c2cc(NC(=O)[C@H]3CNC(=O)C3)nn2-c2ccccc2Cl)c1 [Example 100]
93 | O=C1C[C@@H](C(=O)Nc2cc(-c3cccc(OC(F)(F)F)c3)n(CCC3CCOCC3)n2)CN1 [Example 201]

Further lines, the compound ahead of its results:

SMILES | IC50 [nM]
CC(C)(C)c1cccc(-c2cc(NC(=O)[C@H]3CNC(=O)C3)nn2-c2ccccc2)c1 [Example 25] | 1.8
CCCc1cccc(-c2cc(NC(=O)[C@H]3CNC(=O)C3)nn2CCC2CCCCC2)c1 [Example 113] | 12
O=C1CCC(C(=O)Nc2cc(-c3ccccc3)n(-c3ccccc3)n2)CN1 (racemic) [Example 10] | 5500
CCCc1cccc(-c2cc(NC(=O)[C@@H]3CNC(=O)C3)nn2-c2cccc(C)c2)c1 [Example 77] | 2
C[C@H]1C(=O)NC[C@@H]1C(=O)Nc1cc(-c2cccc(C(C)(C)C)c2)n(C2CCOCC2)n1 [Example 178] | 14
CCCc1cccc(-c2cc(NC(=O)C3CNC(=O)C3)nn2C2CCCCC2)c1 (racemic) [Example 32] | 12
C[C@H]1C(=O)NC[C@@H]1C(=O)Nc1cc(-c2cccc(OC(F)(F)F)c2)n(CC2CCOCC2)n1 [Example 200] | 120
CC1(C)C=C(c2cc(NC(=O)[C@H]3CNC(=O)C3)nn2-c2ccccc2)CCC1 [Example 79] | 22
CCCc1cccc(-c2cc(NC(=O)[C@H]3CNC(=O)C3)nn2-c2cccc(OCC(=O)O)c2)c1 [Example 124] | 170
CCCc1cccc(-c2cc(NC(=O)[C@@H]3CNC(=O)C3)nn2C(F)(F)F)c1 [Example 87] | 110
O=C1C[C@@H](C(=O)Nc2cc(C3CCCCCC3)n(-c3ccccc3)n2)CN1 [Example 62] | 470
O=C1C[C@@H](C(=O)Nc2cc(C3CCCCC3)n(-c3ccccc3)n2)CN1 [Example 40] | 650
Cc1cccc(-c2cc(NC(=O)[C@H]3CNC(=O)C3)nn2-c2ccccc2)c1 [Example 57] | 230
CC(C)(C)c1cccc(-c2cc(NC(=O)[C@@H]3CNC(=O)C3)nn2-c2ccccc2)c1 [Example 26] | 3.5
Cc1ccccc1-n1nc(NC(=O)[C@H]2CNC(=O)[C@@H]2C)cc1-c1cccc(C(F)(F)F)c1 [Example 225] | 3.9
Cc1ccccc1-c1cc(NC(=O)[C@H]2CNC(=O)C2)nn1-c1ccccc1 [Example 56] | 14300

Same assay, conditions: 14C-AMG uptake, CHO-K1 cells stably expressing human SGLT1

IC50 [nM] | SMILES
15 | CCCc1cccc(-c2cc(NC(=O)[C@@H]3CNC(=O)C3)nn2-c2cccc(OC(F)(F)F)c2)c1 [Example 400]
22 | CC(C)Oc1cccc(-c2cc(NC(=O)[C@H]3CNC(=O)C3)nn2-c2ccccc2)c1 [Example 321]
11.5 | CC(C)(C)COc1cccc(-c2cc(NC(=O)[C@@H]3CNC(=O)C3)nn2-c2ccccc2)c1 [Example 288]
12 | COc1ccc(F)c(-n2nc(NC(=O)[C@@H]3CNC(=O)C3)cc2-c2cccc(OC(F)(F)F)c2)c1 [Example 515]
3.4 | COCCOc1cc(-n2nc(NC(=O)[C@@H]3CNC(=O)C3)cc2-c2cccc(CO[C@H](C)C(F)(F)F)c2)ccc1F [Example 456]
370 | O=C1NC[C@@H](C(=O)Nc2cc(-c3cccc(OC(F)(F)F)c3)n(-c3ccccc3)n2)O1 [Example 263]
4 | C[C@@H](OCc1cc(F)cc(-c2cc(NC(=O)[C@@H]3CNC(=O)C3)nn2-c2cccc(Cl)c2)c1)C(F)(F)F [Example 514]
4.75 | CCCOc1cc(-n2nc(NC(=O)[C@@H]3CNC(=O)C3)cc2-c2cccc(COCC(F)(F)F)c2)ccc1F [Example 419]
75 | CCCOc1cccc(-c2cc(NC(=O)[C@@H]3CNC(=O)C3)nn2-c2ccccc2)c1 [Example 284]
6.8 | COc1cccc(-n2nc(NC(=O)[C@@H]3CNC(=O)C3)cc2-c2cccc(COCC(F)(F)F)c2)c1F [Example 480]
23 | COCCOc1cccc(-n2nc(NC(=O)[C@@H]3CNC(=O)C3)cc2-c2cccc(CO[C@H](C)C(F)(F)F)c2)c1F [Example 487]
3.7 | COc1cc(-n2nc(NC(=O)[C@@H]3CNC(=O)C3)cc2-c2cccc(CO[C@H](C)C(F)(F)F)c2)ccc1F [Example 457]
3.1 | COCCOc1cccc(-n2nc(NC(=O)[C@@H]3CNC(=O)C3)cc2-c2cccc(CO[C@H](C)C(F)(F)F)c2)c1 [Example 455]
5.5 | C[C@@H](OCc1cccc(-c2cc(NC(=O)[C@H]3CNC(=O)C3)nn2-c2ccccc2)c1)C(F)(F)F [Example 561]
3.2 | C[C@@H](OCc1cc(F)cc(-c2cc(NC(=O)[C@@H]3CNC(=O)C3)nn2-c2ccccc2Cl)c1)C(F)(F)F [Example 513]

Second part, the compound before the results:

SMILES | IC50 [nM]
O=C1C[C@H](C(=O)Nc2cc(-c3cc(Cl)cc(COC(C(F)(F)F)C(F)(F)F)c3)n(-c3ccccc3)n2)CN1 [Example 579] | 23
C[C@@H](OCc1cccc(-c2cc(NC(=O)[C@H]3CNC(=O)N3)nn2-c2ccc(Cl)cc2)c1)C(F)(F)F [Example 590] | 13
CCCc1cccc(-c2cc(NC(=O)[C@@H]3CNC(=O)C3)nn2-c2cccc(OC(C)C)c2)c1 [Example 344] | 3.35
CCCc1cccc(-c2cc(NC(=O)[C@H]3COC(=O)N3)nn2-c2ccccc2)c1 [Example 369] | 15
CC(C)OCc1cccc(-c2cc(NC(=O)[C@@H]3CNC(=O)C3)nn2-c2ccccc2)c1 [Example 299] | 33
CCCOc1ccc(-n2nc(NC(=O)[C@@H]3CNC(=O)C3)cc2-c2cccc(CCC)c2)cc1 [Example 383] | 14
CCCO[C@H](C)c1cccc(-c2cc(NC(=O)[C@@H]3CNC(=O)C3)nn2-c2ccccc2)c1 [Example 395] | 13
O=C1CCC(C(=O)Nc2cc(-c3cccc(COCCC(F)(F)F)c3)n(-c3ccccc3)n2)CN1 (single isomer, unassigned) [Example 338] | 17
C[C@@H](OCc1cccc(-c2cc(NC(=O)[C@@H]3CNC(=O)N3)nn2-c2ccccc2)c1)C(F)(F)F [Example 562] | 13
CCCc1cccc(-c2cc(NC(=O)[C@@H]3CNC(=O)C3)nn2-c2ccc(O)cc2)c1 [Example 371] | 36
C[C@@H](OCc1cc(F)cc(-c2cc(NC(=O)[C@H]3CNC(=O)N3)nn2-c2ccc(Cl)cc2)c1)C(F)(F)F [Example 570] | 8.7
Cc1cc(CO[C@H](C)C(F)(F)F)cc(-c2cc(NC(=O)[C@@H]3CNC(=O)C3)nn2-c2ccccc2)c1 [Example 410] | 22
CCCc1cccc(-c2cc(NC(=O)[C@H]3CNC(=O)N3CCC)nn2-c2ccccc2)c1 [Example 304] | 10
CC(C)(OCc1cc(Cl)cc(-c2cc(NC(=O)[C@@H]3CNC(=O)C3)nn2-c2ccccc2)c1)C(F)(F)F [Example 243, (S)-5-oxopyrrolidine-3-carboxylic acid[5-[3-chloro-5-(2,2,2-trifluoro-1,1-dimethylethoxymethyl)phenyl]-1-phenyl-1H-pyrazol-3-yl]amide] | 14
CCCc1cccc(-c2cc(NC(=O)[C@@H]3CNC(=O)C3)nn2-c2cccc(OCCCS(C)(=O)=O)c2)c1 [Example 492] | 19
COC(C)(C)c1cccc(-c2cc(NC(=O)[C@H]3CNC(=O)N3)nn2-c2ccccc2)c1 [Example 269] | 92

Same assay, conditions: CHO-K1, at 0.1 uM

inhibition at 0.1 µM [%] | SMILES
8 | O=C1C[C@H](C(=O)Nc2cc(-c3cccc(CS(=O)(=O)CC(F)(F)F)c3)n(-c3ccccc3)n2)CN1 [Example 552]
42 | O=C1C[C@H](C(=O)Nc2cc(-c3cccc(S(=O)(=O)CCC(F)(F)F)c3)n(-c3ccccc3)n2)CN1 [Example 551]
15 | C[C@@H]1C[C@H](n2nc(NC(=O)[C@H]3CNC(=O)[C@@H]3C)cc2-c2cccc(OC(F)(F)F)c2)C[C@H](C)O1 [Example 221]
31 | CC(C)CS(=O)(=O)c1cccc(-c2cc(NC(=O)[C@@H]3CNC(=O)C3)nn2-c2ccccc2)c1 [Example 553]
24 | CCS(=O)(=O)Cc1cccc(-c2cc(NC(=O)[C@@H]3CNC(=O)C3)nn2-c2ccccc2)c1 [Example 541]
40 | CCCNC(=O)c1cccc(-c2cc(NC(=O)[C@@H]3CNC(=O)C3)nn2-c2ccccc2)c1 [Example 429]

Same assay, conditions: CHO-K1, at 0.3 uM

inhibition at 0.3 µM [%] | SMILES
43 | CC(C)(O)c1cccc(-c2cc(NC(=O)[C@@H]3CNC(=O)C3)nn2-c2ccccc2)c1 [Example 81]
11 | CCCc1cccc(-c2cc(NC(=O)[C@@H]3CNC(=O)N3CC(=O)O)nn2-c2ccccc2)c1 [Example 347]

Same assay, conditions: at 0.1 uM

human SGLT1 % Inhibition [%] | SMILES
34 | O=C1COC(C(=O)Nc2cc(-c3cccc(OC(F)(F)F)c3)n(-c3ccccc3)n2)CN1 (stereo not drawn) [Example 278]
